Consider 2 compounds from ChEMBL document CHEMBL3865836, “Biosynthesis-Inspired Total Synthesis of Bioactive Styryllactones (+)-Goniodiol, (6S,7S,8S)-Goniodiol, (-)-Parvistone D, and (+)-Parvistone E” (J Nat Prod, 2016).

Experiment [1] is described as follows: Cytotoxicity against human Bel7470 cells by trypan blue dye exclusion method. The format is functional, cell-based.
Experiment [2] can be described thus: Cytotoxicity against human Bcap32 cells by trypan blue dye exclusion method. The format is functional, cell-based.
A short description of experiment [3]: Cytotoxicity against human HeLa cells by trypan blue dye exclusion method. The format is functional, cell-based.
Experiment [4] is described as follows: Cytotoxicity against human A549 cells. The format is functional. To be noted: read-out: ED50 (the source's name).
Experiment [5] in a line: Cytotoxicity against mouse P388 cells. The format is functional, cell-based.

As a reminder, the IC50 is the concentration at which inhibition is half-maximal. Read a high IC50 as weaker potency in that assay. Take `O=C1C=CC[C@H]([C@@H](O)[C@H](O)c2ccccc2)O1`: the IC50 in experiment [1] was 4.1 µM; in experiment [2] it was 54.7 µM; in experiment [3], 12.8 µM.
Consider `O=C1C=CC[C@H]([C@H](O)[C@H](O)c2ccccc2)O1` [GONIODIOL], for which the EC50 in experiment [4] stood at 0.51 µM. The compound also registered an IC50 in experiment [5] of 19.5 µM.
